{
  "source": "patent US7446226B2",
  "about": "(priority 2003, dated 2008)",
  "conditions_in_all_cases": "in vivo",
  "key": {"[1]": {"system": "sea tulip Balanus improvisus"}, "[2]": {"system": "blue mussel Mytilus edulis"}, "[3]": {"system": "total growth of marine organisms on the panels"}, "[4]": {"system": "growth of marine organisms on the painted surfaces"}},
  "data": [
    {"smiles": "COc1cc(CNC(=O)CCCC/C=C/C(C)C)ccc1O", "note": "[capsaicin, (E)-8-methyl-N-vanillyl-6-nonenamide]", "values": [
      {"measurement": "Coverage of the sea tulip Balanus improvisus compared with the 2 other treatments", "setting": "[1]", "result": "significantly lower"},
      {"measurement": "Reduction in growth measured as coverage of the sea tulip", "setting": "[1]", "result": 74, "unit": "%"},
      {"measurement": "Coverage of the blue mussel Mytilus edulis, difference between the 3 treatments", "setting": "[2]", "result": "no statistically significant difference"},
      {"measurement": "Reduction in growth measured as a reduction in wet weight of total growth", "setting": "[3]", "result": 64, "unit": "%"},
      {"measurement": "Wet weight of the total growth on the panels compared with the two other treatments", "setting": "[3]", "result": "statistically lower growth"},
      {"measurement": "Growth on surfaces by optical comparison with the control surfaces", "setting": "[4]", "result": "considerably less growth"}
    ]}
  ]
}
